Source: patent US6906094B2, “1,2,4-tribsubstituted benzenes as inhibitors of 15-lipoxygenase” (Warner-Lambert Company, priority 2000, dated 2005)

target: T1, human 15-LO (Homo sapiens, UniProt P16050); test: Human Lysate 15-LO Assay (HUM15LO); format: biochemical; conditions: recombinant human 15-LO, 174 μM linoleic acid, 15 minutes at 4° C., 13-HODE quantitated
T1 construct: made in house; host or cells: Sf9 insect cells (baculovirus, Bac-to-Bac)
T1 sequence (P16050 1-662): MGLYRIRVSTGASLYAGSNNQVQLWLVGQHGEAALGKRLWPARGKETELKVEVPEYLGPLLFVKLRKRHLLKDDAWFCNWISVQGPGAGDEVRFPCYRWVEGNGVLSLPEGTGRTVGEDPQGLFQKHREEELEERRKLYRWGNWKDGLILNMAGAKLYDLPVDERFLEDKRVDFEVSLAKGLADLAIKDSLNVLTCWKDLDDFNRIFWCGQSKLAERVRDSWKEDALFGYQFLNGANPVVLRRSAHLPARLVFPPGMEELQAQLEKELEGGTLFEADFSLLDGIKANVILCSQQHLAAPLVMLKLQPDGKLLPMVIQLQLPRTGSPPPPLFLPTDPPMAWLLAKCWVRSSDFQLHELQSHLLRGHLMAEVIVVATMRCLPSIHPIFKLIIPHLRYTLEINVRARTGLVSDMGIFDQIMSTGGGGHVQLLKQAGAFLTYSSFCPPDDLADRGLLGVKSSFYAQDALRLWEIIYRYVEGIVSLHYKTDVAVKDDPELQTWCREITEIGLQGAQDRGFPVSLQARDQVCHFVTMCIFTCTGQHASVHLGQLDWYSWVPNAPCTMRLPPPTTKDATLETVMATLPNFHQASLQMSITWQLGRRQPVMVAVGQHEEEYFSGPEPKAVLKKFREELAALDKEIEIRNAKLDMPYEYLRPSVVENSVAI
Procedure: In the HUM15LO assay, a test compound of the present invention was incubated with 15-LO enzyme in the presence of the linoleic acid substrate. For example, a known amount of a test compound of the present invention, 100 μL of human 15-LO, and 174 μM linoleic acid in PBS containing 0.2% sodium cholate were incubated for 15 minutes at 4° C. The reaction was stopped with 100 μL of mobile phase and 10 μL of triethyl phosphite. […] 13-HODE was quantitated by comparing peak areas of individual samples with those from a standard curve generated using authentic 13-HODE. The test reaction is compared to a control reaction, which is identical to the test reaction except no test compound of the present invention is present Percent inhibition is calculated as the amount of 13-HODE produced by the test reaction divided by the amount of 13-HODE produced by the control reaction, expressed as a percent.
Human 15-LO was generated in a recombinant 15-lipoxygenase bacculovirus expression system, using Gibco/BRL/Life Technologies' Bac-to-Bac expression reagents; T4 DNA ligase, Kanamycin, Gentamicin, tetracycline, penicillin, streptomycin, Bluo-gal, IPTG, DH10Bac competent cells, SOC, LB medium, Sf-900 II SFM media, Sf9 insect cells, Cell Fectin, and EcoRI, BamHI and KpnI restriction enzymes.

Compound | IC50
COc1ccc(C(=O)Nc2ccc(F)c(F)c2)cc1NS(=O)(=O)NC(=O)OCCN1CCOCC1 [Example 2, Carbamic Acid, [[[5[[(3,4-difluorophenyl)amino]carbonyl]-2-methoxyphenyl]-amino]sulfonyl]-, 2-(4morpholinyl)ethyl ester] | 384 nM
COc1ccc(C(=O)Nc2ccc(F)c(F)c2)cc1NS(=O)(=O)NC(=O)OCCN(C)C [Example 5, Carbamic Acid, [[[5-[[(3,4-difluorophenyl)amino]carbonyl]-2-methoxyphenyl]amino]sulfonyl]-, 2-(dimethylamino)ethyl ester] | 240 nM
COc1ccc(C(=O)Nc2ccc(F)c(F)c2)cc1NS(=O)(=O)NC(=O)OCCc1cccs1 [Example 7, Carbamic Acid, [[[5-[[(3,4-difluorophenyl)amino]carbonyl]-2-methoxyphenyl]amino]sulfonyl]-, 2-(2-thienyl)ethyl ester] | 79 nM
CCS(=O)(=O)CCOC(=O)NS(=O)(=O)Nc1cc(C(=O)Nc2ccc(F)c(F)c2)ccc1OC [Example 8, Carbamic Acid, [[[5-[[(3,4-difluorophenyl)amino]carbonyl]-2-methoxyphenyl]amino]sulfonyl]-, 2-(ethylsulfonyl)ethyl ester] | 312 nM
COc1ccc(-c2cc3cc(F)c(F)cc3[nH]2)cc1NS(=O)(=O)N(C)C(=O)OCCCOCc1ccccc1 [Example 13, Carbamic Acid, [[[5-(5,6-difluoro-IH-indol-2-yl)-2-methoxyphenyl]amino]-sulfonyl]methyl-, 3(phenylmethoxy)propyl ester] | 30 nM
COc1ccc(-c2cc3cc(F)c(F)cc3[nH]2)cc1NS(=O)(=O)NC(=O)OCC(=O)OCc1ccccc1 [Example 16, Acetic Acid, [[[[[[5-(5,6-difluoro-IH-indol-2-yl)-2-methoxyphenyl]amino]-sulfonyl]amino]carbonyl]oxy]-, phenylmethyl ester] | 10 nM
COc1ccc(C(=O)Nc2ccc(F)c(F)c2)cc1NS(=O)(=O)NC(=O)Nc1ccccc1 [Example 18, Benzamide, N-(3,4-difluorophenyl)-4-methoxy-3-[[[[(phenylamino)carbonyl]-amino]sulfonyl]amino]] | 142 nM
COc1ccc(C(=O)Nc2ccc(F)c(F)c2)cc1NS(=O)(=O)NC(=O)Nc1cccc([N+](=O)[O-])c1 [Example 60, Benzamide, N-(3,4-difluorophenyl)-4-methoxy-3-[[[[[(3-nitrophenyl) -amino]carbonyl]amino]sulfonyl]amino]] | 25 nM
COc1ccc(C(=O)Nc2ccc(F)c(F)c2)cc1NS(=O)(=O)NC(=O)Nc1ccc(N)cc1 [Example 63, Benzamide, 3-[[[[[(4-aminophenyl)amino]carbonyl]amino]sulfonyl]amino]-N-(3,4-difluorophenyl)-4-methoxy-, mono(trifluoroacetate)] | 214 nM
COc1ccc(C(=O)Nc2ccc(F)c(F)c2)cc1NS(=O)(=O)NC(=O)Nc1ccccc1 [Example 67, Benzamide, N-(3,4-difluorophenyl)-4-methoxy-3-[[[[(phenylamino)carbonyl]-amino]sulfonyl]amino]] | 182 nM
Carbamic Acid, [[[5-[[(3,4-difluorophenyl)amino]carbonyl]-2-methoxyphenyl]amino]sulfonyl]methyl-, Ethyl ester [Example 69] | 154 nM

Other lines, results leading:

IC50 | Compound
6 nM | CCCCCCCCCCCCOC(=O)NS(=O)(=O)Nc1cc(-c2cc3cc(F)c(F)cc3[nH]2)ccc1OC [Example 1, Carbamic Acid, [[[5-(5,6-difluoro-IH-indol-2-yl)-2-methoxyphenyl]amino]-sulfonyl]-, Dodecyl Ester]
408 nM | COc1ccc(C(=O)Nc2ccc(F)c(F)c2)cc1NS(=O)(=O)NC(=O)OCCCN(C)C [Example 3, Carbamic Acid, [[(5-[[(3,4-diflu rophenyl)amino]carbonyl]-2-methoxyphenyl]amino]sulfonyl]-, 3-(dimethylamino)propyl Ester]
144 nM | COc1ccc(C(=O)Nc2ccc(F)c(F)c2)cc1NS(=O)(=O)NC(=O)OCCN1CCCC1 [Example 4, Carbamic Acid, [[[5-[[(3,4-difluorophenyl)amino]carbonyl]-2-methoxyphenyl]amino]-suffonyl]-, 2-(1-pyrrolidinyl)ethyl ester]
154 nM | COc1ccc(C(=O)Nc2ccc(F)c(F)c2)cc1NS(=O)(=O)NC(=O)OCCCBr [Example 9, Carbamic Acid, [[[5-[[(3,4-difluorophenyl)amino]carbonyl]-2-methoxyphenyl]amino]sulfonyl]-, 3-bromopropyl ester]
37 nM | COc1ccc(C(=O)Nc2ccc(F)c(F)c2)cc1NS(=O)(=O)NC(=O)Nc1cc(Cl)cc(Cl)c1 [Example 17, Benzamide, 3-[[[[[(3,5-dichlorophenyl)amino]-carbonyl]amino]sulfonyl]-amino]-N-(3,4-difluorophenyl)-4-methoxy]
339 nM | CCOC(=O)NS(=O)(=O)Nc1cc(C(=O)Nc2ccc(F)c(F)c2)ccc1OC [Example 19, Carbamic Acid, [[[5-[[(3,4-difluorophenyl)amino]carbonyl]-2-methoxyphenyl]amino]sulfonyl]-, Ethyl Ester]
1050 nM | COc1ccc(NS(=O)(=O)NC(=O)Nc2cc(C(=O)Nc3ccc(F)c(F)c3)ccc2OC)cc1 [Example 20, Benzamide, N-(3,4-difluorophenyl)-4-methoxy-3-[[[[[(4-methoxyphenyl)-amino]sulfonyl]amino]carbonyl]amino]]
630 nM | CCOC(=O)NS(=O)(=O)Nc1cc(-c2cc3ccccc3[nH]2)ccc1OC [Example 26, Carbamic Acid, [[[5-(IH-indol-2-yl)-2-methoxyphenyl]amino]sulfonyl]-, Ethyl Ester]
173 nM | COc1ccc(C(=O)Nc2ccc(F)c(F)c2)cc1NS(=O)(=O)NC(=O)Nc1cc(C(F)(F)F)cc(C(F)(F)F)c1 [Example 62, Benzamide, 3-[[[[[[3,5-bis(trifluoromethyl)phenyl]amino]-carbonyl]amino]-sulfonyl]amino]-N-(3,4-difluorophenyl)-4-methoxy]

target: T2, rabbit reticulocyte 15-LO (Oryctolagus cuniculus, UniProt P12530); test: Rabbit Reticulocyte 15-LO Assay (H15LO); format: biochemical; conditions: 2 U rabbit reticulocyte 15-LO, 174 μM linoleic acid, 15 minutes at 4° C., 13-HODE quantitated
T2 construct: 15-LO is obtained from phenylhydrazine-treated rabbits and purified according to the method of Rapoport; from tissue; host or cells: reticulocytes of phenylhydrazine-treated rabbits
T2 sequence (P12530 1-663): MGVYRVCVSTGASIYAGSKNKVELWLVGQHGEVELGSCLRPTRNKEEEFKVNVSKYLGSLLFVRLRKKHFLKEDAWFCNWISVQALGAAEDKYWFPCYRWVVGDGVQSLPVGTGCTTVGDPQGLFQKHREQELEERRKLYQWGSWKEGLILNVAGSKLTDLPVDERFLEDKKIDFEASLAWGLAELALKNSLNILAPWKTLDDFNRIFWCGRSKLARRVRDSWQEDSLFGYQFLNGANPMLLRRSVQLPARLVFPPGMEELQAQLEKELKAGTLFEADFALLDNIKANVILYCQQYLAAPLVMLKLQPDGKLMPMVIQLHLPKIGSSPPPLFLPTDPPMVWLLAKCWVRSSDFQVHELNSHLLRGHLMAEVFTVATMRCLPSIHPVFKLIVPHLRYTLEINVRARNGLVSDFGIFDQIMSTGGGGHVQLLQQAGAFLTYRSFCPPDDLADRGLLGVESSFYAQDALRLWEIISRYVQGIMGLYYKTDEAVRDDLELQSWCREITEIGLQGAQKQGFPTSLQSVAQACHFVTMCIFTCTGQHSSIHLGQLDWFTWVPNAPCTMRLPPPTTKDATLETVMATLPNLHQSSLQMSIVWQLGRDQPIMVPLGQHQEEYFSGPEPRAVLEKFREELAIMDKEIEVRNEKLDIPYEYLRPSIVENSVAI
Procedure: In the H15LO assay, a test compound was incubated with 15-LO enzyme in the presence of the linoleic acid substrate. For example, 2 units (U) of rabbit reticulocyte 15-LO and 174 μM linoleic acid were incubated with a known amount of a test compound of the present invention for 15 minutes at 4° C. The total reaction volume was 100 μL in phosphate buffer saline (PBS) containing 0.2% sodium cholate. The reaction was stopped with 100 μL of mobile phase and […] of triethyl phosphite. […] 13-HODE was quantitated by comparing peak areas of individual samples with those from a standard curve generated using authentic 13-HODE.
15-LO is obtained from phenylhydrazine-treated rabbits and purified according to the method of Rapoport (Rapoport et al., European Journal of Biochemistry, 1979;96:545-561).

Compound | IC50
COc1ccc(-c2cc3cc(F)c(F)cc3[nH]2)cc1NS(=O)(=O)N(C)C(=O)OCCCOCc1ccccc1 [Example 13, Carbamic Acid, [[[5-(5,6-difluoro-IH-indol-2-yl)-2-methoxyphenyl]amino]-sulfonyl]methyl-, 3(phenylmethoxy)propyl ester] | 12 nM
COc1ccc(-c2cc3cc(F)c(F)cc3[nH]2)cc1NS(=O)(=O)NC(=O)OCC(=O)OCc1ccccc1 [Example 16, Acetic Acid, [[[[[[5-(5,6-difluoro-IH-indol-2-yl)-2-methoxyphenyl]amino]-sulfonyl]amino]carbonyl]oxy]-, phenylmethyl ester] | 2 nM

The next lines start with the values.

IC50 | Compound
17 nM | CCCCCCCCCCCCOC(=O)NS(=O)(=O)Nc1cc(-c2cc3cc(F)c(F)cc3[nH]2)ccc1OC [Example 1, Carbamic Acid, [[[5-(5,6-difluoro-IH-indol-2-yl)-2-methoxyphenyl]amino]-sulfonyl]-, Dodecyl Ester]
10 nM | COc1ccc(C(=O)Nc2ccc(F)c(F)c2)cc1NS(=O)(=O)NC(=O)Nc1cc(Cl)cc(Cl)c1 [Example 17, Benzamide, 3-[[[[[(3,5-dichlorophenyl)amino]-carbonyl]amino]sulfonyl]-amino]-N-(3,4-difluorophenyl)-4-methoxy]
23 nM | COc1ccc(-c2cc3cc(F)c(F)cc3[nH]2)cc1NS(=O)(=O)NC(=O)OC(C)(C)C [Example 53, Carbamic Acid, [[[5-(5,6-difluoro-indol-2-yl)-2-methoxyphenyl]amino]-sulfonyl]-, 1,1-dimethylethyl ester]
